What all share (type): cell-based
Experiment [1] concerns TNF-α production. The experiment is described as follows: Human TNF-α production suppression test (LPS-stimulated peripheral blood mononuclear cells, ELISA). Conditions: PBMC, 24 hr; for inhibition at 10 µg/mL: compound 10 μg/mL, control well = 100, read-out: TNF-α production suppressive rate (%). As to the method: Example 50: Human TNF-α Production Suppression Test
Peripheral blood of a healthy adult was collected in a vacuum blood collection tube (Terumo, containing EDTA/2Na), and then diluted two-fold with an equal volume of OTSUKA NORMAL SALINE (Otsuka Pharmaceutical Co., Ltd.). The diluted blood was mixed with Lymphoprep (AXIS-SHIELD) in half the volume of the diluted blood, dispensed into a 15 mL conical tube, and centrifuged at room temperature for 20 min (2,100 rpm). The mononuclear cells accumulated at the interface between Lymphoprep and plasma was transferred to a 50 mL conical tube, diluted with OTSUKA NORMAL SALINE, and the mononuclear cells suspension was centrifuged at room temperature for 10 min (1,150 rpm) and then the supernatant was removed. The mononuclear cells fraction obtained as a precipitate was suspended in an appropriate amount of 10% fetal calf serum (Thermo Fisher Scientific)-containing RPMI1640 medium (Thermo Fisher Scientific, hereinafter abbreviated as medium A), and diluted as appropriate with 0.4% trypan blue solution (Sigma-Aldrich Co. LLC.). The number of viable cells was counted with a hemocytometer (ERMA INC.). It was diluted with medium A such that the value obtained was 5×10^5 cells/mL. On the other hand, 75 μL of medium A, 5 μL of 0.4 mg/mL test compound solution (DMSO solution 10-fold diluted with medium A), and 20 μL of 10 μg/mL lipopolysaccharide (Sigma-Aldrich Co. LLC.) solution (diluted with medium A) were each added in advance to the same well of a Falcon 96-well flat bottom plate (Corning Incorporated), and the above-mentioned cell suspension was dispensed at 0.1 mL/well. 5 μL of DMSO diluted 10-fold with medium A was added to the control well instead of the compound solution. After culturing at 37° C. in a 5% CO2 stream for 24 hr, the culture solution was centrifuged at 4° C., 1,000 rpm for 3 min and the supernatant was recovered. The content of TNF-α in the supernatant was measured using an ELISA kit (Peprotech) according to a conventional method. The amount of TNF-α produced in the well containing the test compound was determined with the amount of TNF-α produced in the control well as 100, and the suppression rate was calculated for each test.

Experiment [2] has as its system REC-1 cells. The experiment is described as follows: Human mantle cell lymphoma cell line REC-1 proliferation suppression test. The note with it: Rec1, 72 h, compound 10 μM, 3 days, WST-8, read-out: cell survival rate (% of control) REC-1. In short, it runs like this: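 Cells were plated at 1.3×10^5 cells/mL, and the next day test compound was added at a final 10 μM, with DMSO-only medium as control. After 3 days at 37° C under 5% CO2, proliferation was measured with WST-8.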

The test system of experiment [3] is Daudi cells. Description: Human Burkitt lymphoma cell line Daudi proliferation suppression test. The note with it: 72 h, compound 10 μM, 3 days, WST-8, read-out: cell survival rate (% of control) Daudi. In short, it runs like this: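 Daudi cells plated at 1.3×10^5 cells/mL and cultured overnight at 37° C., 5% CO2, then given test compound at final 10 μM (DMSO vehicle control). After 3 days' culture, proliferation was read by WST-8.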

With `O=C1CCC(n2cc(-c3cscc3OCc3cccnc3)nn2)C(=O)N1` (stereo not drawn) [compound 35, 3-{4-[4-(pyridin-3-ylmethoxy)thiophen-3-yl]-1H-1,2,3-triazol-1-yl}piperidine-2,6-dione], the inhibition at 10 µg/mL in experiment [1] came to 70%. Further, the viability at 10 µM is 39% in experiment [2] and 67% in experiment [3].

As to `COc1ccc(COc2cscc2-c2cn(C3CCC(=O)NC3=O)nn2)cc1` (stereo not drawn) [compound 31, 3-{4-[4-(4-methoxybenzyloxy)thiophen-3-yl]-1H-1,2,3-triazol-1-yl}piperidine-2,6-dione], the inhibition at 3 µg/mL in experiment [1] (suppressive rate at 3 μg/mL) is 82%. For the same compound, the viability at 10 µM came to 27% in experiment [2] and 39% in experiment [3].

Consider `COc1sccc1-c1cn(C2CCC(=O)NC2=O)nn1` (stereo not drawn) [compound 18, 3-[4-(2-methoxythiophen-3-yl)-1H-1,2,3-triazol-1-yl]piperidine-2,6-dione], for which the inhibition at 10 µg/mL in experiment [1] came out at 100%. In addition, the viability at 10 µM in experiment [2] worked out at 18%; in experiment [3] it was 51%.

For `O=C1CCC(n2cc(-c3cscc3Cl)nn2)C(=O)N1` (stereo not drawn) [compound 14, 3-[4-(4-chlorothiophen-3-yl)-1H-1,2,3-triazol-1-yl]piperidine-2,6-dione], the inhibition at 10 µg/mL in experiment [1] came out at 75%. Besides, the viability at 10 µM in experiment [2] was 34%; in experiment [3], 49%.

As for `O=C1CCC(n2cc(-c3cccs3)nn2)C(=O)N1` (stereo not drawn) [compound 3, 3-[4-(thiophen-2-yl)-1H-1,2,3-triazol-1-yl]piperidine-2,6-dione], the inhibition at 10 µg/mL in experiment [1] was 59%. The results for the viability at 10 µM in experiment [2] and in experiment [3] were 65% and 78%, respectively.

In the case of `O=C1CCC(n2cc(-c3cscc3OCC3CC3)nn2)C(=O)N1` (stereo not drawn) [compound 28, 3-{4-[4-(cyclopropylmethoxy)thiophen-3-yl]-1H-1,2,3-triazol-1-yl}piperidine-2,6-dione], in experiment [1], the inhibition at 10 µg/mL amounted to 37%. Moreover, the values for the viability at 10 µM in experiment [2] and in experiment [3] were 58% and 78%, respectively.

`O=C1CCC(n2cc(-c3scc4c3OCCO4)nn2)C(=O)N1` (stereo not drawn) [compound 10, 3-[4-(2,3-dihydrothieno[3,4-b][1,4]dioxin-5-yl)-1H-1,2,3-triazol-1-yl]piperidine-2,6-dione]: the inhibition at 10 µg/mL in experiment [1] turned out to be 50%. The viability at 10 µM in experiment [2] stood at 57%; in experiment [3], 85%.

On to `COc1cscc1-c1nnn(C2CCC(=O)NC2=O)c1I` (stereo not drawn) [compound 49, 3-[5-iodo-4-(4-methoxythiophen-3-yl)-1H-1,2,3-triazol-1-yl]piperidine-2,6-dione], for which the inhibition at 10 µg/mL in experiment [1] stood at 79%. Besides, the viability at 10 µM in experiment [2] turned out to be 24%; in experiment [3], 42%.

On to `O=C1CCC(n2cc(-c3cscc3OCC3CCCCC3)nn2)C(=O)N1` (stereo not drawn) [compound 30, 3-{4-[4-(cyclohexylmethoxy)thiophen-3-yl]-1H-1,2,3-triazol-1-yl}piperidine-2,6-dione], for which, in experiment [1], the inhibition at 10 µg/mL was 79%. The viability at 10 µM was determined as 49% in experiment [2] and 76% in experiment [3].

For the origin of these results see patent US11299485B2, “Thiophene derivative and use thereof” (FUJIMOTO CO., LTD., priority 2018, dated 2022).
